SMILES strings stand for the structures.

Assay type in all cases: functional
One assay deals with EKVX. Nature of the assay: Growth inhibition of human EKVX cells assessed as cell growth at 0.01 uM incubated for 48 hrs by sulforhodamine B assay relative to control. Particulars: read-out: Activity. (Sulforhodamine B stains cellular protein and so reports cell mass.)
Assay [1] has as its system NCI-H322M. Nature of the assay: Growth inhibition of human NCI-H322M cells assessed as cell growth at 0.01 uM incubated for 48 hrs by sulforhodamine B assay relative to control. Particulars: read-out: Activity.
For a further assay, the system named is KM12. Put plainly: Growth inhibition of human KM12 cells assessed as cell growth at 0.01 uM incubated for 48 hrs by sulforhodamine B assay relative to control. To be noted: KM12, 48 h, read-out: Activity.
The test system of assay [2] is SNB-75. Put plainly: Growth inhibition of human SNB75 cells assessed as cell growth at 0.01 uM incubated for 48 hrs by sulforhodamine B assay relative to control. Particulars: SNB-75, 48 h, read-out: Activity.
A further assay relates to OVCAR-4. Put plainly: Growth inhibition of human OVCAR4 cells assessed as cell growth at 0.01 uM incubated for 48 hrs by sulforhodamine B assay relative to control. To be noted: OVCAR-4, 48 h, read-out: Activity.
The test system of assay [3] is SN12C. Nature of the assay: Growth inhibition of human SN12C cells assessed as cell growth at 0.01 uM incubated for 48 hrs by sulforhodamine B assay relative to control. Particulars: read-out: Activity.
In the next assay the test system is PC-3. Nature of the assay: Growth inhibition of human PC3 cells assessed as cell growth at 0.01 uM incubated for 48 hrs by sulforhodamine B assay relative to control. Particulars: PC-3, 48 h, read-out: Activity.
Another assay has as its system SR. Put plainly: Growth inhibition of human SR cells assessed as cell growth at 0.1 uM incubated for 48 hrs by sulforhodamine B assay relative to control. To be noted: read-out: Activity.
A further assay relates to SK-MEL-28. Nature of the assay: Growth inhibition of human SK-MEL-28 cells assessed as cell growth at 0.1 uM incubated for 48 hrs by sulforhodamine B assay relative to control. Particulars: SK-MEL-28, 48 h, read-out: Activity.
Assay [4] relates to RXF 393. Nature of the assay: Growth inhibition of human RXF393 cells assessed as cell growth at 0.1 uM incubated for 48 hrs by sulforhodamine B assay relative to control. To be noted: RXF 393, 48 h, read-out: Activity.
The test system of assay [5] is SN12C. Nature of the assay: Growth inhibition of human SN12C cells assessed as cell growth at 0.1 uM incubated for 48 hrs by sulforhodamine B assay relative to control. Particulars: read-out: Activity.
The subject of assay [6] is U-251. Nature of the assay: Growth inhibition of human U251 cells assessed as cell growth at 1 uM incubated for 48 hrs by sulforhodamine B assay relative to control. Particulars: U-251, 48 h, read-out: Activity.
In assay [7] the test system is UACC-62. Put plainly: Growth inhibition of human UACC62 cells assessed as cell growth at 1 uM incubated for 48 hrs by sulforhodamine B assay relative to control. Particulars: UACC-62, 48 h, read-out: Activity.
Assay [8] relates to U-251. Put plainly: Growth inhibition of human U251 cells assessed as cell growth at 10 uM incubated for 48 hrs by sulforhodamine B assay relative to control. To be noted: U-251, 48 h, read-out: Activity.
The subject of another assay is M14. Put plainly: Growth inhibition of human M14 cells assessed as cell growth at 10 uM incubated for 48 hrs by sulforhodamine B assay relative to control. To be noted: M14, 48 h, read-out: Activity.
In the next assay the test system is COLO 205. Nature of the assay: Growth inhibition of human COLO205 cells assessed as cell growth at 100 uM incubated for 48 hrs by sulforhodamine B assay relative to control. To be noted: COLO 205, 48 h, read-out: Activity.
Another assay concerns HCC 2998. Nature of the assay: Growth inhibition of human HCC2998 cells assessed as cell growth at 100 uM incubated for 48 hrs by sulforhodamine B assay relative to control. Particulars: HCC 2998, 48 h, read-out: Activity.
A further assay concerns HCT-116. Put plainly: Growth inhibition of human HCT116 cells assessed as cell growth at 100 uM incubated for 48 hrs by sulforhodamine B assay relative to control. Particulars: HCT-116, 48 h, read-out: Activity.
Assay [9] relates to SNB-75. Put plainly: Growth inhibition of human SNB75 cells assessed as cell growth at 100 uM incubated for 48 hrs by sulforhodamine B assay relative to control. To be noted: SNB-75, 48 h, read-out: Activity.
The test system of the next assay is HCT-15. Nature of the assay: Growth inhibition of human HCT15 cells assessed as cell growth at 0.003 uM incubated for 48 hrs by sulforhodamine B assay relative to control. To be noted: HCT-15, 48 h, read-out: Activity.
Another assay concerns SW-620. Nature of the assay: Growth inhibition of human SW620 cells assessed as cell growth at 0.003 uM incubated for 48 hrs by sulforhodamine B assay relative to control. To be noted: SW-620, 48 h, read-out: Activity.
Assay [10] has as its system UACC-62. Nature of the assay: Growth inhibition of human UACC62 cells assessed as cell growth at 0.003 uM incubated for 48 hrs by sulforhodamine B assay relative to control. To be noted: UACC-62, 48 h, read-out: Activity.
The test system of assay [11] is RXF 393. Put plainly: Growth inhibition of human RXF393 cells assessed as cell growth at 0.003 uM incubated for 48 hrs by sulforhodamine B assay relative to control. Particulars: RXF 393, 48 h, read-out: Activity.
Assay [12] relates to MDA-MB-231. Put plainly: Growth inhibition of human MDA-MB-231 cells assessed as cell growth at 0.003 uM incubated for 48 hrs by sulforhodamine B assay relative to control. To be noted: MDA-MB-231, 48 h, read-out: Activity.
Another assay deals with NCI-H460. Nature of the assay: Growth inhibition of human NCI-H460 cells assessed as cell growth at 0.03 uM incubated for 48 hrs by sulforhodamine B assay relative to control. Particulars: NCI-H460, 48 h, read-out: Activity.
Another assay has as its system CAKI-1. Nature of the assay: Growth inhibition of human Caki1 cells assessed as cell growth at 0.03 uM incubated for 48 hrs by sulforhodamine B assay relative to control. To be noted: CAKI-1, 48 h, read-out: Activity.
In assay [13] the test system is RPMI-8226. Put plainly: Growth inhibition of human RPMI8226 cells assessed as cell growth at 0.3 uM incubated for 48 hrs by sulforhodamine B assay relative to control. To be noted: RPMI-8226, 48 h, read-out: Activity.
For assay [14], the system named is MDA-MB-231. Put plainly: Growth inhibition of human MDA-MB-231 cells assessed as cell growth at 0.3 uM incubated for 48 hrs by sulforhodamine B assay relative to control. To be noted: MDA-MB-231, 48 h, read-out: Activity.
The next assay relates to HL-60(TB). Put plainly: Growth inhibition of human HL-60(TB) cells assessed as cell growth at 3 uM incubated for 48 hrs by sulforhodamine B assay relative to control. Particulars: HL-60, 48 h, read-out: Activity.
The next assay concerns SK-MEL-2. Nature of the assay: Growth inhibition of human SK-MEL-2 cells assessed as cell growth at 3 uM incubated for 48 hrs by sulforhodamine B assay relative to control. Particulars: SK-MEL-2, 48 h, read-out: Activity.
A further assay relates to SK-MEL-5. Nature of the assay: Growth inhibition of human SK-MEL-5 cells assessed as cell growth at 3 uM incubated for 48 hrs by sulforhodamine B assay relative to control. Particulars: SK-MEL-5, 48 h, read-out: Activity.
The next assay deals with ACHN. Put plainly: Growth inhibition of human ACHN cells assessed as cell growth at 3 uM incubated for 48 hrs by sulforhodamine B assay relative to control. To be noted: read-out: Activity.
Another assay relates to K562. Put plainly: Growth inhibition of human K562 cells assessed as cell growth at 30 uM incubated for 48 hrs by sulforhodamine B assay relative to control. To be noted: K562, 48 h, read-out: Activity.
Assay [15] relates to RPMI-8226. Put plainly: Growth inhibition of human RPMI8226 cells assessed as cell growth at 30 uM incubated for 48 hrs by sulforhodamine B assay relative to control. Particulars: RPMI-8226, 48 h, read-out: Activity.
The test system of assay [16] is NCI-H322M. Nature of the assay: Growth inhibition of human NCI-H322M cells assessed as cell growth at 30 uM incubated for 48 hrs by sulforhodamine B assay relative to control. Particulars: read-out: Activity.

Consider `COc1cc2cc(Oc3ccc(NC(=O)Nc4ccc(Cl)c(Cl)c4)cc3)c(C)nc2cc1OC`, for which the growth at 0.01 µM in the assay with EKVX came out at 94%; in the assay with NCI-H322M [1] it was 100%; in the assay on KM12 it was 103%; in the assay on SNB-75 [2], 89%; with OVCAR-4 it was 95%; in the assay on SN12C [3], 93%. For the same compound, the growth at 0.01 µM in the assay on PC-3 is 96%. The growth at 0.1 µM in the assay with SR was 108%; with SK-MEL-28 it was 91%; with RXF 393 [4] it was 111%; in the assay with SN12C [5], 95%. Further, the growth at 1 µM with U-251 [6] is 83%; in the assay with UACC-62 [7], 77%. Further, the results for the growth at 10 µM in the assay on U-251 [8] and in the assay with M14 were -13% and 2%, respectively. Also, the growth at 100 µM in the assay on COLO 205 was -100%; in the assay on HCC 2998, -9%; in the assay with HCT-116, -100%; in the assay with SNB-75 [9], -59%.
For the compound `COc1cc2cc(Oc3ccc(NC(=O)Nc4ccc(Cl)c(C(F)(F)F)c4)cc3)c(C)nc2cc1OC`, the growth at 0.003 µM in the assay with HCT-15 came to 95%; in the assay with SW-620, 95%; in the assay on UACC-62 [10], 96%; with RXF 393 [11] it was 106%; in the assay on MDA-MB-231 [12] it was 101%. The growth at 0.03 µM in the assay with NCI-H460 was found to be 105%; in the assay with CAKI-1, 96%. Besides, the values for the growth at 0.3 µM with RPMI-8226 [13] and with MDA-MB-231 [14] were 85% and 87%, respectively. Besides, the growth at 3 µM in the assay on HL-60(TB) was -2%; in the assay with SK-MEL-2, -29%; in the assay with SK-MEL-5, -20%; in the assay with ACHN, 8%. In addition, the growth at 30 µM was -60% in the assay on K562, -47% in the assay with RPMI-8226 [15] and -86% in the assay on NCI-H322M [16].
For the compound `COc1cc2cc(Oc3ccc(NC(=O)Nc4cc(C(F)(F)F)cc(C(F)(F)F)c4)cc3)c(C)nc2cc1OC`, the growth at 0.01 µM in the assay on EKVX amounted to 89%; in the assay with NCI-H322M [1], 94%; in the assay with KM12, 98%; with SNB-75 [2], 81%; in the assay on OVCAR-4, 85%; in the assay with SN12C [3], 96%. In the assay with PC-3, the growth at 0.01 µM was determined as 92%. Moreover, the growth at 0.1 µM was found to be 97% in the assay on SR, 102% in the assay with SK-MEL-28, 99% in the assay with RXF 393 [4] and 100% with SN12C [5]. Further, the growth at 1 µM in the assay on U-251 [6] stood at 55%; with UACC-62 [7], 35%. The growth at 10 µM with U-251 [8] is -85%; in the assay on M14, -59%. In addition, the growth at 100 µM with COLO 205 is -79%; in the assay with HCC 2998, -92%; in the assay with HCT-116 it was -87%; in the assay on SNB-75 [9] it was -44%.
`Cc1nc2cc(O)c(O)cc2cc1Oc1ccc(NC(=O)Nc2ccc(Cl)c(Cl)c2)cc1`: the growth at 0.003 µM came to 100% in the assay on HCT-15; 100% with SW-620; 96% with UACC-62 [10]; 100% in the assay with RXF 393 [11]; 110% with MDA-MB-231 [12]. Further, the growth at 0.03 µM amounted to 99% in the assay with NCI-H460 and 94% in the assay on CAKI-1. Besides, the results for the growth at 0.3 µM in the assay with RPMI-8226 [13] and in the assay on MDA-MB-231 [14] were 97% and 118%, respectively. Moreover, the growth at 3 µM with HL-60(TB) came out at 106%; in the assay on SK-MEL-2, 107%; in the assay on SK-MEL-5, 85%; in the assay with ACHN, 51%. Moreover, the growth at 30 µM with K562 is -3%; in the assay on RPMI-8226 [15], -22%; with NCI-H322M [16], 19%.

The values are drawn from ChEMBL document CHEMBL3994622, “Design and synthesis of new RAF kinase-inhibiting antiproliferative quinoline derivatives. Part 2: Diarylurea derivatives” (Eur J Med Chem, 2017).
